From patent publication US9605004B2, “Chemical compounds” (SYNGENTA LIMITED, priority 2013, dated 2017)

What was measured:
[1] = system: a variety of test species; assay: Pre-emergence herbicidal activity (Example 8a, Table 2); format: in vivo; set-up: key: 0 = no damage to plant, 5 = total damage to plant; details: application pre-emergence, rate 1000 g/ha, evaluated after 13 days
Summary of the method: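 Damage was rated 13 days after treatment on a 0–5 scale (0 = no damage, 5 = total damage). Pots of seeds in standard soil were sprayed one day after sowing with an aqueous solution from an acetone/water (50:50), 0.5% Tween 20 formulation and kept at 24/16 °C day/night.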

[2] = system: a variety of test species; assay: Post-emergence herbicidal activity (Example 8b, Table 3); format: in vivo; details: application post-emergence, rate 1000 g/ha, evaluated after 13 days, scale 0-5; for Herbicidal damage score, ABUTH: Abutilon theophrasti; for Herbicidal damage score, ALOMY: Alopecurus myosuroides; for Herbicidal damage score, AMARE: Amaranthus retroflexus; for Herbicidal damage score, ECHCG: Echinochloa crus-galli; for Herbicidal damage score, SETFA: Setaria faberi; for Herbicidal damage score, ZEAMX: Zea mays
Summary of the method: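 Pot-grown seedlings sprayed 8 days after sowing with active ingredient in acetone/water (50:50) plus 0.5% Tween 20. Glasshouse at 24/16 °C day/night, 14 h light, 65% humidity, watered twice daily. Damage scored after 13 days on a 0–5 scale (5 = total damage, 0 = none).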

Compound	Pre-emergence herbicidal activity, damage score ABUTH [1]	Pre-emergence herbicidal activity, damage score ALOMY [1]	Pre-emergence herbicidal activity, damage score AMARE [1]	Pre-emergence herbicidal activity, damage score ECHCG [1]	Pre-emergence herbicidal activity, damage score SETFA [1]	Pre-emergence herbicidal activity, damage score ZEAMX [1]	Herbicidal damage score, ABUTH [2]	Herbicidal damage score, ALOMY [2]	Herbicidal damage score, AMARE [2]	Herbicidal damage score, ECHCG [2]	Herbicidal damage score, SETFA [2]	Herbicidal damage score, ZEAMX [2]
CCn1nc(N2C(=O)C(Cl)=C(C)C2O)c2c1C(C)(C)CC2 (stereo not drawn) [Compound C3]	5	4	5	5	4	2	5	4	5	5	5	4
CC1=C(Cl)C(=O)N(c2cc(C(F)(F)F)n(C(C)C)n2)C1O (stereo not drawn) [Compound C4]	4	3	4	4	4	3	4	4	4	5	4	2
CC1=C(Cl)C(=O)N(c2cc(C(F)(F)F)n(CC(F)(F)F)n2)C1O (stereo not drawn) [Compound C5]	2	3	3	4	4	2	4	5	5	5	5	3
CCn1nc(N2C(=O)C(Cl)=C(C)C2O)cc1C(F)(F)F (stereo not drawn) [Compound C6]	5	4	5	5	4	4	5	5	5	5	4	3
CC1=C(Cl)C(=O)N(c2cc(C(F)(F)F)n(C(C)C)n2)C1O (stereo not drawn) [Compound C7]	4	3	4	4	4	3	4	4	4	5	4	2
CCn1nc(N2C(=O)C(Cl)=C(C)C2O)cc1C(C)(C)C (stereo not drawn) [Compound C8]	4	4	5	4	5	2	5	5	4	5	5	3
CC1=C(Cl)C(=O)N(c2cc(C(F)(F)F)n(CC(F)(F)F)n2)C1O (stereo not drawn) [Compound C9]	2	3	3	4	4	2	4	5	5	5	5	3
CC1=C(Cl)C(=O)N(c2cc(C#N)n(CC(F)(F)F)n2)C1O (stereo not drawn) [Compound C11]	5	0	2	1	1	1	5	2	1	4	3	2
CC1=C(Cl)C(=O)N(c2cc(C)n(C(F)F)n2)C1O (stereo not drawn) [Compound C12]	5	3	5	4	3	2	5	4	5	5	5	3
CC1=C(Cl)C(=O)N(c2cc(C)n(C(F)(F)F)n2)C1O (stereo not drawn) [Compound C13]	3	2	2	2	2	0	1	1	1	1	2	1
CC1=C(Cl)C(=O)N(c2nn(C)c(C(C)(C)C)c2C#N)C1O (stereo not drawn) [Compound D1]	5	4	5	4	4	2	5	4	5	5	5	3
CC1=C(Cl)C(=O)N(c2nn(C)c(C(C)(C)C)c2C#N)C1O (stereo not drawn) [Compound D2]	5	4	5	4	4	2	5	4	5	5	5	3
CC1=C(Cl)C(=O)N(c2nn(C)c(C(C)(C)C)c2Cl)C1O (stereo not drawn) [Compound D3]	5	3	5	5	5	4	5	4	4	5	5	4
CC1=C(Cl)C(=O)N(c2nn(C)c(C(C)(C)CCl)c2Cl)C1O (stereo not drawn) [Compound D4]	5	3	2	4	2	2	5	4	4	5	4	0
CSc1c(C#N)c(N2C(=O)C(Cl)=C(C)C2O)nn1C (stereo not drawn) [Compound D5]	0	0	0	0	0	0	0	0	0	0	0	0
